This is an account of results in patent publication US9359196B2, “Antiproliferative compositions comprising curcumin analogs and methods of producing and using same” (The Board of Regents of the University of Oklahoma, priority 2009, dated 2016).

Data set [1] has as its system H441 cells. The data set can be described thus: Monodansylcadaverine fluorescence microscopy of autophagosomes in H441 cells. The data set is classed as cell-based, human. The method, then:
Monodansylcadaverine (MDC) is an autofluorescent marker for autophagic vacuoles. [Biederbick et al., 1995] It was found the emergence of intense MDC-fluorescence in the treated cells. The fluorescence vanished when the cells were treated with 3-methyl adenine (3-MA). […] [Seglen et al., 1982]

Data set [2] in a line: Phase solubility analysis with HPβCD. The data set is classed as physicochemical. The method, then: CLEFMA was synthesized and characterized according to the methods described in Example 1. A phase solubility analysis of CLEFMA was performed according to the published method [Higuchi et al., 1965], and ICs of CLEFMA with HPβCD in the solution phase were prepared as reported previously [Agashe et al., 2010]. Briefly, an excess of CLEFMA was added to 5 ml of HPβCD solution (1 g/ml). The mixture was continuously agitated on a shaker incubator at 25° C. for 72 h. After allowing settling of coarse particulate matter for 6 h, the supernatant was centrifuged at 14,000 rpm for 15 min to obtain a clear supernatant free of any insoluble material. The solution was passed through a sterile 0.22 μm cellulose acetate filter, and the amount of HPβCD-solubilized CLEFMA was estimated spectrophotometrically at 320 nm. The phase solubility diagram was constructed by plotting the estimated CLEFMA concentration against HPβCD concentrations. The stability constant was calculated from the phase diagram using the following equation— K1:1=Slope/[S0(1−Slope)], where S0 is CLEFMA solubility in the absence of HPβCD
The complexation efficiency (CE) was calculated as a product of S0 and K1:1

For data set [3], the system named is H441 cells. In words: MitoSOX Red mitochondrial superoxide imaging / flow cytometry. The data set is classed as cell-based, human. As to conditions: 0-20 μM, 12-48 h. The method, then:
MitoSOX Red mitochondrial superoxide imaging: Cells were grown to 70% confluency in 24-well tissue culture plates and treated with CLEFMA (0-20 μM) for 12-48 h; treatment with hydrogen peroxide (H2O2, 10 μM) served as a positive control. At the end of the incubation period, both the non-adherent and adherent cells were incubated with 5 μM MitoSOX Red solution (Invitrogen, Carlsbad, Calif.) for 30 min at 37° C. For flow cytometric analysis, the MitoSOX-loaded cells were trypsinized and collected in HBSS (with Ca/Mg) containing 1% BSA and suspended at a density of 1−2×10^7 cells/ml. Approximately 5-10 million cells were aliquoted into a binding buffer and run through an automated dual-laser-excited FACS Calibur (Flow and Imaging Core Facility, OUHSC, Oklahoma City) measuring at 488 nm excitation wavelength. The data were collected at the FSC, FL2 and FL3 channels for at least 10,000 events, and the histogram and dot-plot charts were obtained and analyzed using Summit V4.3 software (Dako Colorado Inc, Carpinteria, Calif.). For microscopy, the MitoSOX-loaded cells were counterstained with 1 μg/ml Hoechst 33342 dye (Molecular Probes, Carlsbad, Calif.). […]
On the technique in general: Flow cytometry measures light scatter and fluorescence of single cells or particles in a stream.

In data set [4] the test system is MiaPaCa-2 (pancreatic cancer) cells. The data set can be described thus: Cell proliferation study in MiaPaCa-2 cells. In kind it is cell-based. The method, then: Cell Culture and drug treatment: Human lung adenocarcinoma cell line NCI-H441 (ATCC Number: HTB-174) was obtained from the American Type Culture Collection (Manassas, Va.). H441 cells were maintained at 37° C. with 5% CO2 in McCoy's 5A Medium (Invitrogen, Carlsbad, Calif.) supplemented with 5% heat-inactivated fetal bovine serum (FBS). All media contained gentamicin at 50 μg/ml (GIBCO Laboratories, Grand Island, N.Y.). Other cells lines (PANC-1, MiaPaCa-2 and PC-3) were also similarly maintained, except that the cell culture medium was RPMI 1640 instead of McCoy's.
To evaluate the anti-proliferative activity of synthesized bis(2-fluorobenzylidene)-4-piperidone and its derivatives, the cells were seeded in 96-well flat-bottom tissue culture plates at a density of 10×10^3 cells per well. The cells were allowed to attach and grow overnight. The test compounds were solubilized in dimethyl sulfoxide (DMSO), filtered through 0.2 μm nylon filter and added to cells at 1, 10, 25 and 100 μM concentrations in culture medium supplemented with 5% FBS. […]
Cell Proliferation: The total number of cells after the treatment period was estimated by the hexosaminidase assay. […] The absorbance was measured at 405 nm. […] The data were analyzed as percent of control, where the control wells were treated with equivalent amounts of DMSO alone, and the analyzed data was presented as average±standard error of mean. […]

Data set [5] deals with normal lung fibroblasts LL-24. In words: In vitro anti-proliferative activity in normal lung fibroblasts LL-24. In kind it is cell-based. As to conditions: LL-24, identical treatment conditions (10 μM, 24 h). The method, then:
Human lung adenocarcinoma cell line NCI-H441 (ATCC # HTB-174) and normal lung fibroblasts LL-24 (ATCC #CCL-151) were obtained from American Type Culture Collection (Manassas, Va.). The cells were maintained at 37° C. with 5% CO2 in RPMI 1640 medium (Invitrogen, Carlsbad, Calif.). The medium was supplemented with 10% heat-inactivated fetal bovine serum and 50 μg/ml of gentamicin (GIBCO Laboratories, Grand Island, N.Y.). For cell proliferation assay, the cells were seeded in 96-well flat-bottom tissue culture plates at a density of 0.5−1×10^4 cells per well. The cells were allowed to adhere and grow overnight, followed by treatment with CLEFMA or CLEFMA-liposomes. The concentration of CLEFMA was maintained in the range of 0.1-25 μM in 100 μl of RPMI 1640 medium. For comparison, the cells were also treated with 1 and 10 μM natural curcumin and EF24. EF24 is a potent synthetic curcuminoid and a close analog of CLEFMA [Adams et al., 2004]. All solutions of plain drugs were made in dimethylsulfoxide (DMSO). The concentration of DMSO in the treatment medium was maintained at 0.1%. The control wells received equivalent amounts of DMSO or phospholipid-matched control liposomes. Inhibition of cell proliferation was determined by measuring a decrease in hexosaminidase activity as described by Landegren [Landegren, 1984]. […]

As for `O=C(O)C=CC(=O)N1CC(=Cc2ccccc2Cl)C(=O)C(=Cc2ccccc2Cl)C1` [Compound 29, 4-[3,5-Bis-(2-chlorobenzylidene)-4-oxo-piperidin-1-yl]-4-oxo-2-butenoic acid], the “autophagosome formation (MDC fluorescence)” value in the data set with H441 cells [1] is on record as “appearance of intracellular vacuoles or autophagosomes”. Further, in data set [2] (25° C.), the “stability constant of the complex with HPβCD” value came to 0.0126 M⁻¹. In data set [2] (product of S0 and K1:1), the complexation efficiency result is reported as “approximately 0.57”. In the data set on H441 cells [3], the “mitochondrial ROS production (MitoSOX)” value was “time- and dose dependent increase in mitochondrial ROS production”. Further, in data set [4], the “potency of antiproliferative action” value is reported as “enhanced the potency of antiproliferative action”. In addition, in data set [5], the “effect on normal lung fibroblasts” value is given as “essentially remained unscathed”.
